Experimental data as given in PubChem BioAssay (NCI).
Where “and” joins values, the source holds several entries; their conditions need not be identical. Equal entries are not always repeated.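 Five concentrations, 48 hours, 96-well plates. GI50 is the concentration that inhibits growth by half. TGI denotes the concentration required for complete inhibition of growth.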

Tests used:
Test in all cases: NCI anticancer screen, dose series, 48 h
HCC-2998 colon = system: HCC-2998 colon
HT29 colon = system: HT29 colon
IGROV1 ovarian = system: IGROV1 ovarian
M14 melanoma = system: M14 melanoma
NCI-H226 lung = system: NCI-H226 lung
NCI/ADR-RES ovarian = system: NCI/ADR-RES ovarian
PC-3 prostate = system: PC-3 prostate
RXF 393 renal = system: RXF 393 renal
SK-OV-3 ovarian = system: SK-OV-3 ovarian
UACC-257 melanoma = system: UACC-257 melanoma

| SMILES | TGI (HCC-2998 colon) | TGI (HT29 colon) | TGI (IGROV1 ovarian) [µM] | TGI (M14 melanoma) | TGI (NCI-H226 lung) | TGI (NCI/ADR-RES ovarian) | TGI (PC-3 prostate) | TGI (RXF 393 renal) | TGI (SK-OV-3 ovarian) | TGI (UACC-257 melanoma) | GI50 (HCC-2998 colon) | GI50 (HT29 colon) | GI50 (IGROV1 ovarian) [µM] | GI50 (M14 melanoma) | GI50 (NCI-H226 lung) | GI50 (NCI/ADR-RES ovarian) | GI50 (PC-3 prostate) | GI50 (RXF 393 renal) | GI50 (SK-OV-3 ovarian) | GI50 (UACC-257 melanoma) |
| --- | --- | --- | --- | --- | --- | --- | --- | --- | --- | --- | --- | --- | --- | --- | --- | --- | --- | --- | --- | --- |
| NS(=O)(=O)c1ccc(NCc2cnc3ccccc3n2)cc1 | > 100 µM | > 100 µM | > 100 | > 100 µM | > 100 µM | > 100 µM | > 100 µM | > 100 µM | > 100 µM | > 100 µM |  |  |  |  |  |  |  |  |  |  |
| CSc1ccc2c(c1)N(CCC1CCCCN1C)c1ccccc1S2 (stereo not given) | 11.5 µM and 14.1 µM | 15.1 µM and 7.9 µM | 20.1 | 4.89 µM and 3.76 µM | 28.5 µM and 30.3 µM | 24.1 µM and 18.5 µM | 16.6 µM and 13.8 µM | 15.4 µM and 5.23 µM | 27.5 µM and 29 µM | 11.6 µM and 6.3 µM | 3.12 µM and 4.54 µM | 4.08 µM and 2.54 µM | 5.89 | 2.17 µM and 1.85 µM | 11.2 µM and 11.4 µM | 10.4 µM and 4.76 µM | 4.27 µM and 3.63 µM | 3.2 µM and 1.56 µM | 13 µM and 13.8 µM | 3.08 µM and 2.14 µM |
| COc1ccc(-c2nc(Nc3ccc(-c4nc5ccccc5[nH]4)cc3)nc(N3CCOCC3)n2)cc1 | > 100 µM | 5.39 µM |  | 4.03 µM | 8.6 µM | 26.7 µM | 6.66 µM | 2.51 µM | 5.53 µM |  | 3.09 µM | 2.23 µM |  | 1.94 µM | 3.32 µM | 3.18 µM | 2.39 µM | 0.459 µM | 2.37 µM |  |
| COc1ccc2c(c1)C1OCCNC1CC2 (stereo not given) |  | > 100 µM | > 100 | > 100 µM | > 100 µM | > 100 µM | > 100 µM | > 100 µM | > 100 µM | > 100 µM |  |  |  |  |  |  |  |  |  |  |
| NCCCCCCCCCCCn1c2c(c3ccccc3c1=O)C(=O)c1ccccc1-2 | 9.72 µM |  |  | 25.7 µM | 54.3 µM | 17.6 µM | 7.12 µM | 82.3 µM | 34.5 µM | 63.7 µM | 2.76 µM |  |  | 5.92 µM | 25.2 µM | 3.2 µM | 2.26 µM | 24.3 µM | 14.3 µM | 27.7 µM |
| COc1ccc2c(Cc3c4ccccc4cc4ccccc34)cncc2c1O |  | 33.5 µM | 11 | 15.3 µM | 11.7 µM | 9.17 µM | > 59.9 µM | > 21.6 µM | > 40.5 µM | 14 µM |  |  |  |  |  |  |  |  |  |  |
| CSc1nc2c(nc(N)n2C2OC(COC(C)=O)C(OC(C)=O)C(OC(C)=O)C2OC(C)=O)c(=O)n1C (stereo not given) | > 100 µM | > 100 µM | > 100 | > 100 µM | > 100 µM |  |  | > 100 µM | > 100 µM | > 100 µM |  |  |  |  |  |  |  |  |  |  |
| NCCCn1c2c(c3ccc([N+](=O)[O-])cc3c1=O)C(=O)c1cc(-c3ccccc3)ccc1-2 | 1.27 µM | 0.368 µM |  | 2.37 µM |  | 3.76 µM | 2.71 µM | 2.79 µM |  | 3.46 µM | 0.31 µM | 0.19 µM |  | 1.12 µM |  | 1.84 µM | 1.35 µM | 1.36 µM |  | 1.85 µM |
| CCCCCCCCCCC/C=C\C[C@H](O)C/C=C1/C(=O)C=C[C@@H]1C/C=C\CCCC(=O)OC | 4.01 µM | 2.85 µM | 2.66 | 4.32 µM | 1.76 µM | 2.93 µM | 2.76 µM | 3.18 µM | 21.5 µM |  | 1.24 µM | 1.03 µM | 0.742 | 1.04 µM | 0.732 µM | 0.925 µM | 0.836 µM | 0.827 µM | 5.78 µM |  |
| O=[N+]([O-])c1ccc(Sc2nc(Cl)nc(NC3CCCC3)n2)cc1 | > 10 µM | > 10 µM | > 10 | > 10 µM | > 10 µM | > 10 µM | > 10 µM | > 10 µM | > 10 µM |  | > 10 µM | > 10 µM | 2.84 | > 10 µM | > 10 µM | > 10 µM | > 10 µM | 3.34 µM | > 10 µM |  |
| CSc1ccc(OCC2OC2O)cc1 (stereo not given) | > 100 µM | > 90.9 µM | > 100 | > 100 µM | > 100 µM |  |  | > 100 µM | > 100 µM | > 100 µM |  |  |  |  |  |  |  |  |  |  |
| C=C1CC[C@@H]2[C@](C)(COC(C)=O)[C@H](OC(C)=O)CC[C@@]2(C)[C@@H]1CC(Nc1ccc(S(=O)(=O)Nc2cc(C)on2)cc1)C1=CCOC1=O (stereo not given in full) | 4.05 µM | 3.09 µM | 6.51 | 4.17 µM |  | 12 µM | 4.31 µM | 3.84 µM | 23.1 µM | 6.19 µM | 2.14 µM | 1.58 µM | 2.36 | 1.69 µM |  | 2.41 µM | 1.98 µM | 2.05 µM | 11 µM | 2.95 µM |
| C1COCCOCCOCCOCCOCCO1.[Cl][Sn]([Cl])([c]1ccccc1)[c]1ccccc1 | 18.9 µM | 18.9 µM | 23.7 | 12.4 µM | 27.9 µM |  |  | 4.06 µM | 30.2 µM | 4.63 µM | 6.06 µM | 7.28 µM | 11.2 | 4.25 µM | 11.5 µM |  |  | 2.21 µM | 16.6 µM | 2.08 µM |
| CC1(C)CCCC(C)(C2CCC3(C)C2C(O)CC2C4(C)CCC(O)C(C)(C)C4C(O)CC23C)O1 (stereo not given) | 27.9 µM | 14 µM | 38.5 | 31.7 µM | 40.1 µM | 37.4 µM | 25.7 µM |  | 32 µM | 28.1 µM |  |  |  |  |  |  |  |  |  |  |
| N#Cc1ccsc1NC(=O)COC(=O)c1cccc(S(=O)(=O)N2CCc3ccccc32)c1 | > 100 µM | > 100 µM | > 100 |  | > 100 µM | > 100 µM | > 100 µM | > 100 µM | > 100 µM | > 100 µM | 39.2 µM | 14.5 µM | 7.84 |  | > 100 µM | 27.8 µM | 27.1 µM | 31.3 µM | > 100 µM | 28.9 µM |
| COC(=O)c1ccc2c(c1)C(=O)c1c-2n(C)c(=O)c2cc(OC)c(OC)cc12 | > 50 µM | > 50 µM | > 50 | > 50 µM | > 50 µM | > 50 µM | > 50 µM | 26.1 µM | > 50 µM |  | > 50 µM | > 50 µM | 11.8 | > 50 µM | > 50 µM | > 50 µM | > 50 µM | 0.123 µM | > 50 µM |  |
